Earlier results as cited in patent US20080045604A1, “COMPOSITION AND METHOD FOR FACILITATING THE HEALING OF NON-HEALING AND SLOW-HEALING WOUNDS AND ULCERATIONS” (priority 2004, published 2008).

Assays:
[1] = tested on: Lemma minor; settings: Fitoterapia 2005
[2] = tested on: pathogenic molds and dermatophytes; settings: reported medicinal properties
[3] = tested on: Neisseria gonorrhoeae; settings: Biological Chemistry 2005

Compound: COc1cc(/C=C/C(=O)CC(=O)/C=C/c2ccc(O)c(OC)c2)ccc1O [Curcumin, (1E,6E)-1,7-bis(4-hydroxy-3-methoxyphenyl)-1,6-heptadiene-3,5-dione]
- phytotoxic against Lemma minor [1]: 100%
- antifungal activity / inhibition of pathogenic molds and dermatophytes [2]: no antifungal activity
- adherence of bacteria to cells in infection [3]: abolished the adherence of bacteria to cells
